In brackets after ≈: the same amount, converted by molar mass. Like-named read-outs stand apart in the source and are kept apart here.
Columns and labels:
Ser. marcescens A20019 = assay: M.I.C. by tube dilution; format: cell-based; settings: Serratia marcescens
Pr. mirabilis A9900 = assay: M.I.C. by tube dilution; format: cell-based; settings: at 10^-^4 dilution, overnight 37° C.; for MIC: Proteus mirabilis, A9900
S. aureus Smith A9537 = assay: M.I.C. by tube dilution; format: cell-based; settings: Staphylococcus aureus, overnight 37° C.
E. coli Juhl A15119 = assay: M.I.C. by tube dilution; format: cell-based; settings: Escherichia coli, JUHLA15119
D. pneumoniae A9585 = assay: M.I.C. by tube dilution; format: cell-based; settings: Streptococcus pneumoniae, D. pneumoniae + 5% serum, 50% Nutrient Broth - 45% Antibiotic Assay Broth, overnight 37° C.
Str. pyogenes A9604 = assay: M.I.C. by tube dilution; format: cell-based; settings: Streptococcus pyogenes, Str. pyogenes + 5% serum, 50% Nutrient Broth - 45% Antibiotic Assay Broth, overnight 37° C.
K. pneumoniae A9977 = assay: M.I.C. by tube dilution; format: cell-based; settings: at 10^-^4 dilution, overnight 37° C.; for MIC: Klebsiella pneumoniae, A9977
[1] = test system: S. aureus BX 1633-2 A9606; assay: M.I.C. by tube dilution; format: cell-based; settings: overnight 37° C.; for MIC: Staphylococcus aureus
Sal. enteritidis A9531 = assay: M.I.C. by tube dilution; format: cell-based; settings: at 10^-^4 dilution, overnight 37° C.; for MIC: Salmonella enterica, ENTERITIDIS
K. pneumoniae A15130 = assay: M.I.C. by tube dilution; format: cell-based; settings: at 10^-^4 dilution, overnight 37° C.; for MIC: Klebsiella pneumoniae, A15130
[2] = test system: S. aureus methicillin-resistant A15097; assay: M.I.C. by tube dilution; format: cell-based; settings: at 10^-^3 dilution, overnight 37° C.; for MIC: Staphylococcus aureus
E. coli A9675 = assay: M.I.C. by tube dilution; format: cell-based; settings: at 10^-^4 dilution, overnight 37° C.; for MIC: Escherichia coli, A9675
Ps. aeruginosa A9843A = assay: M.I.C. by tube dilution; format: cell-based; settings: Pseudomonas aeruginosa
S. aureus A9748 = assay: M.I.C. by tube dilution; format: cell-based; settings: overnight 37° C.; for MIC: Staphylococcus aureus
[3] = Blood levels in the mouse after oral administration; format: in vivo; settings: mouse, oral, 100 mgm./kg.; for concentration at 0.5 h / concentration at 1 h / concentration at 2 h / concentration at 3.5 h: blood, 100 mg/kg, read-out: Blood Level; for concentration at 1 h: 1 hr. after administration; for concentration at 2 h: 2 hrs. after administration; for concentration at 3.5 h: 3.5 hrs. after administration
Method: Blood levels in the mouse after oral administration were
determined with the following results:

Pr. morganii A15153 = assay: M.I.C. by tube dilution; format: cell-based; settings: Morganella morganii
[4] = SMITHA9537, + 50% serum, at 10^-^4 dilution, read-out: M.I.C.
[5] = SMITHA9537, at 10^-^4 dilution, read-out: M.I.C.
[6] = at 10^-^4 dilution, overnight 37° C., read-out: M.I.C.
[7] = BX16332A9606, at 10^-^2 dilution, read-out: M.I.C.
[8] = BX16332A9606, at 10^-^3 dilution, read-out: M.I.C.
[9] = A9748, at 10^-^2 dilution, read-out: M.I.C.
[10] = A9748, at 10^-^3 dilution, read-out: M.I.C.

SMILES: N[C@@H](C(=O)NC1C(=O)N2C(C(=O)O)=C(CSC(=O)c3cscn3)CS[C@H]12)c1ccccc1 (stereo partly drawn) [Compound 591, 7-[D-(-)α-aminophenylacetamido]-3-(thiazol-4-yl)carbonylthiomethyl-3-cephem-4-carboxylic acid]
- MIC (Ser. marcescens A20019): 125 µg/mL (≈ 255 µM)
- MIC (Pr. mirabilis A9900; read-out: M.I.C.): 1 µg/mL (≈ 2.04 µM)
- MIC (S. aureus Smith A9537; [4]): 8 µg/mL
- MIC (S. aureus Smith A9537; [5]): 0.3 µg/mL (≈ 0.612 µM)
- MIC (E. coli Juhl A15119; [6]): 1 µg/mL (≈ 2.04 µM)
- MIC (D. pneumoniae A9585): 0.02 µg/mL
- MIC (Str. pyogenes A9604): 0.02 µg/mL
- MIC (K. pneumoniae A9977; read-out: M.I.C.): 1 µg/mL (≈ 2.04 µM)
- MIC [1, 7]: 2 µg/mL (≈ 4.08 µM)
- MIC [1, 8]: 0.6 µg/mL (≈ 1.22 µM)
- MIC (Sal. enteritidis A9531; read-out: M.I.C.): 0.16 µg/mL (≈ 0.326 µM)
- MIC (K. pneumoniae A15130; read-out: M.I.C.): 8 µg/mL (≈ 16.3 µM)
- MIC [2]: 2 µg/mL (≈ 4.08 µM)
- MIC (E. coli A9675; read-out: M.I.C.): 4 µg/mL (≈ 8.15 µM)
- MIC (Ps. aeruginosa A9843A): > 125 µg/mL
- MIC (S. aureus A9748; [9]): 16 µg/mL (≈ 32.6 µM)
- MIC (S. aureus A9748; [10]): 4 µg/mL (≈ 8.15 µM)
- concentration at 0.5 h ([3]; 0.5 hrs. after administration): 6500 ng/mL
- concentration at 1 h [3]: 7900 ng/mL
- concentration at 2 h [3]: 4400 ng/mL
- concentration at 3.5 h [3]: 3200 ng/mL
- MIC (Pr. morganii A15153; [6]): 32 µg/mL (≈ 65.2 µM)

SMILES: Cc1nc(C(=O)SCC2=C(C(=O)O)N3C(=O)C(NC(=O)[C@H](N)c4ccccc4)[C@H]3SC2)cs1 (stereo partly drawn) [Compound 607, 7-[D-α-aminophenylacetamido]-3-(2-methylthiazol-4-yl)carbonylthiomethyl-3-cephem-4-carboxylic acid]
- MIC (Ser. marcescens A20019): > 125 µg/mL
- MIC (Pr. mirabilis A9900; read-out: M.I.C.): 8 µg/mL (≈ 15.9 µM)
- MIC (S. aureus Smith A9537; [4]): 63 µg/mL
- MIC (S. aureus Smith A9537; [5]): 0.3 µg/mL (≈ 0.595 µM)
- MIC (E. coli Juhl A15119; [6]): 8 µg/mL (≈ 15.9 µM)
- MIC (D. pneumoniae A9585): 0.16 µg/mL
- MIC (Str. pyogenes A9604): 0.16 µg/mL
- MIC (K. pneumoniae A9977; read-out: M.I.C.): 16 µg/mL (≈ 31.7 µM)
- MIC [1, 7]: 4 µg/mL (≈ 7.93 µM)
- MIC [1, 8]: 0.6 µg/mL (≈ 1.19 µM)
- MIC (Sal. enteritidis A9531; read-out: M.I.C.): 0.6 µg/mL (≈ 1.19 µM)
- MIC (K. pneumoniae A15130): 125 µg/mL (≈ 248 µM)
- MIC [2]: 8 µg/mL (≈ 15.9 µM)
- MIC (E. coli A9675; read-out: M.I.C.): 16 µg/mL (≈ 31.7 µM)
- MIC (Ps. aeruginosa A9843A): > 125 µg/mL
- MIC (S. aureus A9748; [9]): 16 µg/mL (≈ 31.7 µM)
- MIC (S. aureus A9748; [10]): 8 µg/mL (≈ 15.9 µM)
- concentration at 0.5 h ([3]; 0.5 hrs. after administration): 1200 ng/mL
- concentration at 1 h [3]: 1400 ng/mL
- concentration at 2 h [3]: 1300 ng/mL
- concentration at 3.5 h [3]: 1000 ng/mL
- Blood Level ([3]; 0.5 hrs. after administration): 1200 ng/mL
- MIC (Pr. morganii A15153; [6]): 32 µg/mL (≈ 63.4 µM)

SMILES: CC1=C(C(=O)O)N2C(=O)[C@@H](NC(=O)[C@H](N)c3ccccc3)[C@H]2SC1 [cephalexin, reference compound]
- MIC (Ser. marcescens A20019): > 125 µg/mL
- MIC (Pr. mirabilis A9900): 4 µg/mL (≈ 11.5 µM)
- M.I.C. (Pr. mirabilis A9900): 8 µg/mL
- MIC (S. aureus Smith A9537; SMITHA9537, + 50% serum, at 10^-^4 dilution): 2.5 µg/mL
- MIC (E. coli Juhl A15119): 8 µg/mL (≈ 23 µM)
- MIC (K. pneumoniae A9977): 8 µg/mL (≈ 23 µM)
- M.I.C. (K. pneumoniae A9977): 4 µg/mL
- MIC ([1]; BX16332A9606, at 10^-^2 dilution): 8 µg/mL (≈ 23 µM)
- MIC ([1]; BX16332A9606, at 10^-^3 dilution): 4 µg/mL (≈ 11.5 µM)
- M.I.C. ([1]; at 10^-^2 dilution): 4 µg/mL
- M.I.C. ([1]; at 10^-^3 dilution): 2 µg/mL
- MIC (Sal. enteritidis A9531): 4 µg/mL (≈ 11.5 µM)
- M.I.C. (Sal. enteritidis A9531): 2 µg/mL
- MIC (K. pneumoniae A15130): 16 µg/mL (≈ 46.1 µM)
- M.I.C. (K. pneumoniae A15130): 32 µg/mL
- MIC [2]: 32 µg/mL (≈ 92.1 µM)
- M.I.C. [2]: 63 µg/mL
- MIC (E. coli A9675): 16 µg/mL (≈ 46.1 µM)
- M.I.C. (E. coli A9675): 32 µg/mL
- MIC (Ps. aeruginosa A9843A): > 125 µg/mL
- MIC (S. aureus A9748; A9748, at 10^-^2 dilution): 125 µg/mL (≈ 360 µM)
- MIC (S. aureus A9748; A9748, at 10^-^3 dilution): 32 µg/mL (≈ 92.1 µM)
- M.I.C. (S. aureus A9748; at 10^-^2 dilution): 63 µg/mL
- M.I.C. (S. aureus A9748; at 10^-^3 dilution): 63 µg/mL
- MIC (Pr. morganii A15153): > 125 µg/mL

Reference: patent publication US3985740A, “7-[D-(α-amino-α-phenyl-, 2-thienyl- and 3-thienylacetamido)]-3-(5-methylthiazol-2-yl)carbonylthiomethyl-3-cephem -4-carboxylic acids” (Bristol-Myers Company, priority 1974, dated 1976)
